Where two headings read alike, the source gives them in different places.
Legend:
[1] = system: nuclear DNA; assay: Platinum adducts (covalent nuclear DNA-binding) by ICP-MS in TNBC xenograft tumor sections; type: in vivo, beige SCID mice
Method: (§1) Thirty-nine mice were euthanized approximately 3 h after the last dose of veliparib and 24 h after the last dose of carboplatin; two mice used in the DCE-MRI pilot were euthanized 1.5 h after single-dose administration of veliparib and carboplatin (Fig. 1). Bilateral xenograft tumors and liver and muscle (quadriceps) tissues were harvested. Tissues were cut into three pieces and either embedded in optimum cutting temperature (OCT) formulation or were directly snap frozen in liquid-nitrogen-cooled isopentane and stored at − 80 °C until analysis. […] A separate fresh-frozen portion of each tissue per animal was ground for quantification of veliparib and carboplatin by LC-MS. Method development and details of the techniques are described in Additional file 1a-c. […]
b). Technical aspects of the ICP-MS method development. […]
DNA extraction procedure:
The DNA extraction was based on previous publications. 4 In short, 44 μL 1 mol L −1 NH4HCO3, 20 μL 20% (w/v) SDS, and 6 μL 1% (w/v) proteinase K solution were added successively, and incubated for 24hours using a thermomixer. After the digestion was complete, 146 μL saturated 6 mol L−1 NaCl was added to each tube and the tubes were shaken vigorously to precipitate proteins. The tubes were centrifuged for 10min at 2000 g and the supernatant containing the DNA was transferred to another tube. Subsequently, the supernatant was shaken, centrifuged, and transferred to another tube. Following this, 1.5ml absolute ethanol was added to precipitate the DNA and centrifuged from 30 minutes at 21 Kg at 4°C. The DNA was washed twice with 75% ethanol and was subsequently dissolved in 30 μL water. DNA concentrations were analyzed by measuring the absorbance at 260 nm using Nanodrop 1000 spectophotometer (NanoDrop).
Carboplatin adduct quantification:
The quantity of the carboplatin-adducts per mg DNA was quantified (Figure S8) using a previously validated […]
Figure S8: Example graph of mass spectrum of platinum in DNA extraction by ICP-MS.

[2] = Veliparib quantified by LC-MS in plasma, TNBC xenograft tumor, muscle and liver of mice; type: in vivo, beige SCID mice; details: for Median conc. (RSE %) / concentration at 3 h: LC-MS; for concentration at 3 h: beige SCID (Fox Chase), mouse, read-out: Median conc. (RSE %)
Method: Forty-one beige DF mice with severe combined immunodeficiency (SCID) (Fox Chase, strain R035948:1) were implanted with 10^6 MDA-MB-231 (N = 10), HCC70 N = 21) or MDA-MB-436 (N = 10) TNBC cells obtained from the ATCC bilaterally in the mammary fat pads (Fig. 1). When the TNBC xenograft tissue size exceeded 200 mm^3, the mice were randomized across the treatment cohorts. Animals were randomized into veliparib low dose (20 mg/kg), veliparib high dose (60 mg/kg) or placebo + C, introduced via oral gavage three times daily for 3 days (all but the two DCE-MRI study mice). Carboplatin at 60 mg/kg was administered intravenously on day 1 and day 2. Blood samples (50 μL) were obtained at day 2 in ethylenediaminetetraacetic acid (EDTA) containing vials at 0.6, 3 and 5 h after veliparib and carboplatin dose in 15 mice (all xenograft models, Fig. 1). The procedures were approved by the Institutional Animal (IACUC AN092211-01D).
as §1
c) Technical aspects of the LC-MS method development.
Plasma samples (50 μl ) were prepared using protein precipitation with acetonitrile. Small tumor samples (average 44 mg) were pulverized using Biopulverizer R (Biospec Bartlesville, OK, USA). Volume and weight of the pulverized tumor was determined. Veliparib was then extracted using cell lysis buffer (Cell Signaling Technology, Danvers, MA,USA), complemented with Halt Protease & Phosphatase (ThermoScientific, Atlanta, GA,USA). Protein precipitation of the tissue lysates was performed with acetonitrile. Oxaliplatin (Tzchem, Framingham, MA,USA) and iniparib (Sigma-Aldrich, Milwaukee, USA) were used as internal standards.
Veliparib/carboplatin quantification:
Carboplatin and veliparib were measured using LC-MS (Applied Biosystem Systems 3200 LC-MS/MS, Toronto, Canada), with electrospray ionization (ESI), using a Xterra® MS C18 3.5 µm column (Waters, Milford, MA, USA). The mobile phase contained 50:50 methanol and water with 0.1%, formic acid.
Concentration of veliparib in tissues were calculated in mg/g and transferred to mg/L by estimating the average density of the livers, muscles and tumors.
Figure S9: Example graph of mass spectrum of veliparib and carboplatin and the internal standards in plasma […]
Method development/validation
The limit of quantification was 15 ng/ml for veliparib and 156 ng/ml for carboplatin. The calibration curves […]
Figure S10) Repetition quantification from two tissue sections of the same animal to show consistence of results when repeating veliparib extraction (performed by LCMS).

[3] = system: MDA-MB-231; design: method as in PMID 21633166, PMID 21707865; details: ref [23], [25]; cited from earlier work
[4] = system: HCC70; details: ref [23]; cited from earlier work
[5] = system: TNBC; design: method as in ref [4] = [4]; 4. Rugo HS, et al. Veliparib/carboplatin plus standard neoadjuvant therapy for high-risk breast cancer: first efficacy results from the I-SPY 2 TRIAL [abstract]. Cancer Res. 2013;73:Abstract nr S5_02.; details: veliparib 50 mg BID combined with carboplatin, neoadjuvant; ref [4]; cited from earlier work
[6] = design: method as in PMID 19526240; details: ref [32]; cited from earlier work
[7] = system: PARP1; details: read-out: IC50 for PARP1 inhibition; ref [3], [31]; cited from earlier work
[8] = system: metastatic BRCA-mutated breast cancer; design: method as in ref [52] = [52]; 52. Somlo G Phase II trial of single agent PARP inhibitor ABT-888 (veliparib [vel]) followed by postprogression therapy of vel with carboplatin (carb) in patients (pts) with stage BRCA-associated meta; details: veliparib 400 mg BID until disease progression; ref [52]; cited from earlier work

With `N.N.O=C([O-])C1(C(=O)[O-])CCC1.[Pt+2]` [carboplatin] the “Median conc. (RSE %), carboplatin adducts” value ([1]; HCC70 xenografts) was 1.85 μmol/g DNA, the “Median conc. (RSE %), carboplatin adducts” value ([1]; HCC70 xenografts, listed as Carboplatin) was 1.85 (42%) μmol/g DNA and the “Median conc. (RSE %), carboplatin adducts” value ([1]; MDA-MB-231 xenografts) was 0.55 μmol/g DNA. The “Median conc. (RSE %), carboplatin adducts” value ([1]; MDA-MB-231 xenografts, listed as Carboplatin) was 0.55 (23%) μmol/g DNA, the “Median conc. (RSE %), carboplatin adducts” value ([1]; MDA-MB-436 xenografts) was 0.54 μmol/g DNA and the “Median conc. (RSE %), carboplatin adducts” value ([1]; MDA-MB-436 xenografts, listed as Carboplatin) was 0.54 (27%) μmol/g DNA. The “Median conc. (RSE %), carboplatin adducts” value ([1]; all TNBC xenograft tissue, 24 h after two carboplatin administrations, ICP-MS) was 0.55 (30%) μmol/g DNA, the “Median conc. (RSE %), carboplatin adducts” value ([1]; carboplatin combined with placebo) was 0.476 (57) μmol/g DNA and the “Median conc. (RSE %), carboplatin adducts” value ([1]; carboplatin combined with veliparib 60mg/kg for 3 days) was 0.977 (33) μmol/g DNA. It also gave a Median platinum adducts ([1]; xenograft tumor sections) of 546.3 nmol/g DNA.
With `C[C@]1(c2nc3c(C(N)=O)cccc3[nH]2)CCCN1` [veliparib] the “Xenograft tissues below the limit of detection by LC-MS” value ([2]; 20 mg/kg dose) was 42%, the “Median conc. (RSE %)” value ([2]; HCC70 xenograft tissue, 60 mg/kg) was 0.43 (16) mg/L and the “Median conc. (RSE %)” value ([2]; MDA-MB-231 xenograft tissue, 60 mg/kg) was 0.27 (18) mg/L. The “Median conc. (RSE %)” value ([2]; MDA-MB-436 xenograft tissue, 60 mg/kg) was 0.32 (26) mg/L, the “Median conc. (RSE %)” value ([2]; TNBC xenograft tissue (all cell lines), 20 mg/kg, 3 h after last dose) was 0.12 (31) mg/L and the “Median conc. (RSE %)” value ([2]; TNBC xenograft tissue (all cell lines), 60 mg/kg, 3 h after last dose, 60 mg/kg) was 0.36 (12) mg/L. For the same compound, the concentration at 3 h ([2]; oral, liver, 60 mg/kg, 3 h after last dose) was 1770 ng/mL, the concentration at 3 h ([2]; oral, plasma, veliparib 60 mg/kg three times daily, 3 h post dose) was 860 ng/mL and the concentration at 3 h ([2]; tumor (HCC70 xenograft), oral, HCC70 xenograft tissue, 20 mg/kg) was 130 ng/mL. For the same compound, the concentration at 3 h ([2]; tumor (HCC70 xenograft), oral, HCC70 xenograft tissue, 60 mg/kg) was 430 ng/mL, the concentration at 3 h ([2]; tumor (MDA-MB-231 xenograft), oral, MDA-MB-231 xenograft tissue, 20 mg/kg) was 10 ng/mL and the concentration at 3 h ([2]; tumor (MDA-MB-231 xenograft), oral, MDA-MB-231 xenograft tissue, 60 mg/kg) was 270 ng/mL. The concentration at 3 h ([2]; tumor (MDA-MB-436 xenograft), oral, MDA-MB-436 xenograft tissue, 20 mg/kg) was 50 ng/mL, the concentration at 3 h ([2]; tumor (MDA-MB-436 xenograft), oral, MDA-MB-436 xenograft tissue, 60 mg/kg) was 320 ng/mL and the concentration at 3 h ([2]; tumor (TNBC xenograft, oral), TNBC xenograft tissue (all cell lines), 60 mg/kg, 3 h after last dose) was 360 ng/mL. For the same compound, the “Median conc. (RSE %)” value ([2]; liver, 20 mg/kg, 3 h after last dose) was 0.47 (20) mg/L, the “Median conc. (RSE %)” value ([2]; liver, 60 mg/kg, 3 h after last dose, 60 mg/kg) was 1.77 (14) mg/L and the “Median conc. (RSE %)” value ([2]; muscle, 20 mg/kg, 3 h after last dose) was 0.12 (70) mg/L. For the same compound, the “Median conc. (RSE %)” value ([2]; muscle, 60 mg/kg, 3 h after last dose) was 0.47 (47) mg/L, the “Median conc. (RSE %)” value ([2]; plasma, veliparib 20 mg/kg three times daily, 3 h post dose) was 0.19 (10) mg/L and the “Median conc. (RSE %)” value ([2]; plasma, veliparib 60 mg/kg three times daily, 3 h post dose) was 0.86 (11) mg/L. The Sensitivity in vitro [3] was “sensitivity”, the Sensitivity in vitro [4] was “insensitive” and the “TN patients without pathologic complete response (pCR)” value [5] was “approximately 42%”. For the same compound, the “Protein binding capacity in human plasma” value [6] was 51%, the IC50 [7] was […] and the “Patients with partial response” value [8] was 20%.
